From ChEMBL document CHEMBL5113527, “First-in-Class Hydrazide-Based HDAC6 Selective Inhibitor with Potent Oral Anti-Inflammatory Activity by Attenuating NLRP3 Inflammasome Activation” (J Med Chem, 2022)
Activity calls are given as the source filed them. No cut-off for these calls is given here.

Assays:
[1] = molecular target: T1, Histone deacetylase 2 (Homo sapiens, UniProt Q92769); assay: Inhibition of recombinant HDAC2 (unknown origin) using Boc-Lys(acetyl)-AMC as substrate preincubated for 1 hr followed by substrate addition and measured after 2 hrs by fluorescence based microplate reader analysis
[2] = Half life in CD-1 mouse at 20 mg/kg, po measured after 0.083 to 24 hrs by LC-MS/MS analysis; format: ADME, organism-based; conditions: in vivo, time 0.083-24 hrs
[3] = Ratio of drug concentration in brain to plasma of CD-1 mouse measured after 2 hrs by LC-MS/MS analysis; format: ADME; conditions: read-out: BPR
[4] = molecular target: Histone deacetylase 1 (Homo sapiens, UniProt Q13547); assay: Inhibition of recombinant HDAC1 (unknown origin) using Boc-Lys(acetyl)-AMC as substrate preincubated for 1 hr followed by substrate addition and measured after 2 hrs by fluorescence based microplate reader analysis
[5] = Plasma concentration in CD-1 mouse at 20 mg/kg measured after 4 hrs by LC-MS/MS analysis; format: ADME, organism-based
[6] = Plasma concentration in CD-1 mouse at 20 mg/kg measured after 0.5 hrs by LC-MS/MS analysis; format: ADME, organism-based
[7] = molecular target: T2, Protein deacetylase HDAC6 (Homo sapiens, UniProt Q9UBN7); assay: Inhibition of recombinant HDAC6 (unknown origin) using Boc-Lys(acetyl)-AMC as substrate preincubated for 1 hr followed by substrate addition and measured after 2 hrs by fluorescence based microplate reader analysis
T2 sequence (Q9UBN7 whole entry): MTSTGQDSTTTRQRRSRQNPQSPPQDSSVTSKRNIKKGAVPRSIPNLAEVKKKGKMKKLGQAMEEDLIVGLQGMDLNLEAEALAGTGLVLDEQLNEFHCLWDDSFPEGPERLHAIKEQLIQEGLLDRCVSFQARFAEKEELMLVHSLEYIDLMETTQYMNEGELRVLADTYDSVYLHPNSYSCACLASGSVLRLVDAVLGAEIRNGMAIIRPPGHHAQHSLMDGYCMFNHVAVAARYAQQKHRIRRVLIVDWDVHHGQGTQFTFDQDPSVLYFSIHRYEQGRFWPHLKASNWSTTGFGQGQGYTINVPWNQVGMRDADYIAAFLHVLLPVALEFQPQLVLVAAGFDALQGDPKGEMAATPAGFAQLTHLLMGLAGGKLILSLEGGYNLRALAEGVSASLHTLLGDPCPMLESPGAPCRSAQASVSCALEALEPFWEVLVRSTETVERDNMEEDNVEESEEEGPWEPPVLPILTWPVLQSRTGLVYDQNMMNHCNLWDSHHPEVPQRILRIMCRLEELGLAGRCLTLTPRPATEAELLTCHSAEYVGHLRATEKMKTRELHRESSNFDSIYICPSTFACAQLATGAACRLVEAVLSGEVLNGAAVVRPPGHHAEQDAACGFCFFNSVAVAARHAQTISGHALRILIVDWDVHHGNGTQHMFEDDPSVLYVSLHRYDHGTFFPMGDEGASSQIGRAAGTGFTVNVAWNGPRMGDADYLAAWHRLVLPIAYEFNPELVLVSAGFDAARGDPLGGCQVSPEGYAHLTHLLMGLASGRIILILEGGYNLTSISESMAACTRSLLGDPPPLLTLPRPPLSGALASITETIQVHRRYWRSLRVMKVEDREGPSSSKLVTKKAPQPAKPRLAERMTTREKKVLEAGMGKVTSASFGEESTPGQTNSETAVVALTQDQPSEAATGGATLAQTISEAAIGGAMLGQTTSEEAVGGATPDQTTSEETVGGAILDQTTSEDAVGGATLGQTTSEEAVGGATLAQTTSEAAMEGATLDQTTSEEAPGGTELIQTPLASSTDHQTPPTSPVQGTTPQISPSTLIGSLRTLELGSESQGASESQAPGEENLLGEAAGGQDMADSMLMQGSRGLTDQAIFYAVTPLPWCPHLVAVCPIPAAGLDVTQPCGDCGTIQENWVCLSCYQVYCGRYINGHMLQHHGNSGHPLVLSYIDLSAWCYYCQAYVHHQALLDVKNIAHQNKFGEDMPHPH

[8] = molecular target: T1, Histone deacetylase 2; assay: Binding affinity to recombinant HDAC2 (unknown origin) assessed as inhibition constant using Boc-Lys(acetyl)-AMC as substrate preincubated for 1 hr followed by substrate addition and measured after 2 hrs by fluorescence based microplate reader analysis
[9] = Brain concentration in CD-1 mouse at 20 mg/kg measured after 0.5 hrs by LC-MS/MS analysis; format: ADME, organism-based; conditions: read-out: Ct
[10] = tested on: J774.A1; assay: Antiinflammatory activity against LPS primed mouse J774.A1 cells assessed suppression of LPS/ATP induced IL-beta release preincubated for 30 mins followed by ATP stimulation measured after 30 mins by ELISA; format: functional, cell-based
[11] = Plasma concentration in CD-1 mouse at 20 mg/kg measured after 2 hrs by LC-MS/MS analysis; format: ADME, organism-based
[12] = molecular target: T3, Histone deacetylase 3 (Homo sapiens, UniProt O15379); assay: Inhibition of recombinant HDAC3 (unknown origin) using Boc-Lys(acetyl)-AMC as substrate preincubated for 1 hr followed by substrate addition and measured after 2 hrs by fluorescence based microplate reader analysis
[13] = tested on: J774.A1; assay: Inhibition of HDAC6/dynein interaction in mouse J774.A1 cells measured after 8 hrs by co-immunoprecipitation based Western blotting analysis; format: cell-based
[14] = Brain concentration in CD-1 mouse at 20 mg/kg measured after 2 hrs by LC-MS/MS analysis; format: ADME, organism-based; conditions: read-out: Ct
[15] = Plasma concentration in CD-1 mouse at 20 mg/kg measured after 1 hrs by LC-MS/MS analysis; format: ADME, organism-based
[16] = Cmax in CD-1 mouse at 20 mg/kg, po measured after 0.083 to 24 hrs by LC-MS/MS analysis; format: ADME, organism-based; parameters: time 0.083-24 hrs, dose 20 mg/kg, route po; conditions: in vivo
[17] = AUC(0 to infinity) in CD-1 mouse at 5 mg/kg, iv measured after 0.083 to 24 hrs by LC-MS/MS analysis; format: ADME, organism-based; parameters: dose 5 mg/kg, time upper 24 hrs, time lower 0.083 hrs, route iv; conditions: in vivo
[18] = molecular target: T2, Protein deacetylase HDAC6; assay: Inhibition of recombinant HDAC6 (unknown origin) using Boc-Lys(acetyl)-AMC as substrate preincubated for 30 mins followed by substrate addition and measured after 2 hrs by fluorescence based microplate reader analysis
[19] = molecular target: T4, Protein deacetylase HDAC6 (Homo sapiens) (UniProt Q9UBN7); assay: Inhibition of HDAC6 in human MV4-11 cells assessed as decrease in hyper acetylation of histone alpha tubulin preincubated for 6 hrs followed by compound washout measured after 1 hr by western blot analysis; format: cell-based
T4 sequence (whole entry): T2 sequence (Q9UBN7 whole entry)

[20] = Ratio of drug concentration in brain to plasma of CD-1 mouse measured after 1 hrs by LC-MS/MS analysis; format: ADME
[21] = tested on: Mus musculus; assay: Inhibition of LPS-induced endotoxic shock in C57BL/6 mouse model serum assessed as decrease in IL-1beta level at 10 mg/kg, ip pretreated for 1 hr followed by LPS addition measured after 12 hrs; format: functional, organism-based; conditions: time 13.0 hrs
[22] = molecular target: T3, Histone deacetylase 3; assay: Binding affinity to recombinant HDAC3 (unknown origin) assessed as inhibition constant using Boc-Lys(acetyl)-AMC as substrate preincubated for 1 hr followed by substrate addition and measured after 2 hrs by fluorescence based microplate reader analysis

T3 sequence (O15379 whole entry): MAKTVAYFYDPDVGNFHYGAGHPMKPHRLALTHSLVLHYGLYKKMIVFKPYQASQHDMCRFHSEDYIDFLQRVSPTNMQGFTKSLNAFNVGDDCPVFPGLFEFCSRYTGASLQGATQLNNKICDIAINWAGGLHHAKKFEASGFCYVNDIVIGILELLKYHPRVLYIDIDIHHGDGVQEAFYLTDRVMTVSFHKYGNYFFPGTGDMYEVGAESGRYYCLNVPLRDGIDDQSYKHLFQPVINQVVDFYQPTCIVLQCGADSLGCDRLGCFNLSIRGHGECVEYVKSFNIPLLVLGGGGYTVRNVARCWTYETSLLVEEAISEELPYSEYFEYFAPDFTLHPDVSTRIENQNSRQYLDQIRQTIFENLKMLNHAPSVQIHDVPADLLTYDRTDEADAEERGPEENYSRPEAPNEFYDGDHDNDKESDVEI
T1 sequence (Q92769 whole entry): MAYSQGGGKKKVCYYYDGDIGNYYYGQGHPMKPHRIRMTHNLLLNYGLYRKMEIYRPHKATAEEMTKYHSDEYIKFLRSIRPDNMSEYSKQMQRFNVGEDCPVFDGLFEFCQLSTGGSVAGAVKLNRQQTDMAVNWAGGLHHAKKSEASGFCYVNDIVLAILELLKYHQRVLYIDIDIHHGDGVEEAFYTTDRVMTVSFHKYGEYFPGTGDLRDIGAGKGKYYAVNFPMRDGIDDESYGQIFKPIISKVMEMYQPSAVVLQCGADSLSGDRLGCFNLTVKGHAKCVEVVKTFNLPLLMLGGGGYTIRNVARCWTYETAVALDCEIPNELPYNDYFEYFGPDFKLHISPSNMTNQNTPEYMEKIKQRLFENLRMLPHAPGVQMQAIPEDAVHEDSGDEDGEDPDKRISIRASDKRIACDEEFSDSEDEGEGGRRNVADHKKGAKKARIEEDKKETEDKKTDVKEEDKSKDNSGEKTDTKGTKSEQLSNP
Chain of Histone deacetylase 1 (Q13547 whole entry): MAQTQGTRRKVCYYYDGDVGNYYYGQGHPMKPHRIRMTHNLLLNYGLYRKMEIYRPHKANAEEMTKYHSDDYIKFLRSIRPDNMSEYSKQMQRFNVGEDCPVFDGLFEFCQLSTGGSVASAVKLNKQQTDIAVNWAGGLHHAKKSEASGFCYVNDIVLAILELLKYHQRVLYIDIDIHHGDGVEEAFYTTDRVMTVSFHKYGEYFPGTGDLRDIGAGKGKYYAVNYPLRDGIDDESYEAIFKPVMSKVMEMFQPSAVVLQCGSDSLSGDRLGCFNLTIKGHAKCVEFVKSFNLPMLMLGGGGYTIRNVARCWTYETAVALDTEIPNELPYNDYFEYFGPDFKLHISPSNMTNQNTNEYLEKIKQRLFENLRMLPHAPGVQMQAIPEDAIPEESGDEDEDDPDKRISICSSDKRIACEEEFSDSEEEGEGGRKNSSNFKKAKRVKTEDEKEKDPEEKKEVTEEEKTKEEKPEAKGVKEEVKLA

## CCNNC(=O)c1ccc(CN2c3ccccc3C=Cc3ccncc32)cc1
[1]
  IC50: 2060 nM
[2]
  half-life: 6.8 h
[3]
  Kp at 2 h: 1.42
[4]
  IC50: 1530 nM
[5]
  concentration at 4 h: 162 ng/mL
[6]
  concentration at 0.5 h: 7740 ng/mL
[7]
  IC50: 19 nM
[8]
  Ki: 1040 nM
[9]
  concentration at 0.5 h: 11300 ng/mL
[10]
  IC50: 2610 nM
[11]
  concentration at 2 h: 2320 ng/mL
[12]
  IC50: 1030 nM
[13]
  inhibition: Active
[14]
  concentration at 2 h: 3280 ng/mL
[15]
  concentration at 1 h: 5880 ng/mL
[16]
  Cmax: 5570 ng/mL
[17]
  AUC(0-inf): 2760 ng·h/mL
[18]
  IC50: 31.7 nM
[19]
  inhibition: Active
[20]
  Kp at 1 h: 1.26
[21]
  Activity: Active
[22]
  Ki: 430 nM
